Experimental findings from patent US10988523B2, “Modified lipidated Relaxin B chain peptides and their therapeutic use” (Sanofi, priority 2018, dated 2021) are described below.

Each structure is given as a SMILES string. *1 amine or outer side, *2 acyl side, *3 side chain or, on linkers, in order; H or OH if unused. Where a SMILES comes first, the peptide text is derived from it. Side-chain parts run from the residue outwards. [ ]: non-standard residue; d: D form. The star is where a group is joined. Arg(Me2s) = CN=C(NC)NCCC[C@H](N)C(=O)O; γGlu = O=C(O)[C@H](CCC(=O)[*:2])N[*:1]; Stearoyl = CCCCCCCCCCCCCCCCCC(=O)*; Palmitoyl = CCCCCCCCCCCCCCCC(=O)*; Lauroyl = CCCCCCCCCCCC(=O)*; Nle = CCCC[C@H](N)C(=O)O; AEEA = NCCOCCOCC(=O)O; Aib = CC(C)(N)C(=O)O

This assay concerns the target T1, RXFP1 (Homo sapiens, UniProt Q9HBX9).
T1 construct: OVCAR5 cells expressing endogenous RXFP1; endogenous in cells; host or cells: OVCAR5 cells
T1 sequence (Q9HBX9 1-757): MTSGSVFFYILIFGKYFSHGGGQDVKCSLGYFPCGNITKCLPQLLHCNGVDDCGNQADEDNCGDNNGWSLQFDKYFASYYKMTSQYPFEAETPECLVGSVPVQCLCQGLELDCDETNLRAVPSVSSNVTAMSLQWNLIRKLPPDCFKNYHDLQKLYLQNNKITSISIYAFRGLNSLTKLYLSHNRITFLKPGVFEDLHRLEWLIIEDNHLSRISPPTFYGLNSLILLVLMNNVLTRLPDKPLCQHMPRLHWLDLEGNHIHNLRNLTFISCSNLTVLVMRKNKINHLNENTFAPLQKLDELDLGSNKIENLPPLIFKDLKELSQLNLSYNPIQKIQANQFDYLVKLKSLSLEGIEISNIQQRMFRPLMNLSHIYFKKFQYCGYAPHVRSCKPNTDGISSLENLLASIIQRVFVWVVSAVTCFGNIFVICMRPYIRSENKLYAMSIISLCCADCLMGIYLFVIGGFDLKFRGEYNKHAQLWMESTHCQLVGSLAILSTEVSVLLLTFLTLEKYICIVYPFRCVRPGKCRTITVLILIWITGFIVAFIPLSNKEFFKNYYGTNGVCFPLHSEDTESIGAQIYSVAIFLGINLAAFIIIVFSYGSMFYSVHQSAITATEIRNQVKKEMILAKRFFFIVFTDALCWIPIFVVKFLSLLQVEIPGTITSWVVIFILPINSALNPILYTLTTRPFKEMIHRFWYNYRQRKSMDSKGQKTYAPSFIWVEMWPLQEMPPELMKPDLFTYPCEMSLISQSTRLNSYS
The experiment in a line: OVCAR5 cAMP assay (HTRF), RXFP1 agonist activity. It is filed as cell-based. The settings on record: for Emax: OVCAR-5, maximal cAMP relative to H2-relaxin maximum (100%), read-out: EMax, OVCAR 5 cells (cAMP); for EC50: OVCAR5 cells, cAMP HTRF, read-out: EC50 (nM), OVCAR 5 cells (cAMP). A digest of the protocol:
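cAMP accumulation readout: after 1 mM IBMX for 40 min, endogenous-RXFP1 OVCAR5 cells got rising peptide concentrations without FCS, 30 min, 37° C, then lysis with HTRF cAMP reagents. Nonlinear regression gave EC50; Emax expressed relative to H2-relaxin maximum, same occasion.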

`CCCCCCCCCCCCCCCCCC(=O)N[C@@H](CCC(=O)N[C@@H](CCC(=O)N[C@@H](CCC(=O)NCCOCCOCC(=O)NCCOCCOCC(=O)NCCOCCOCC(=O)NCCCC[C@H](NC(=O)[C@H](CCCCNC(C)=O)NC(=O)[C@H](CCCCN)NC(=O)[C@H](CCCNC(=NC)NC)NC(=O)C(C)(C)NC(=O)[C@H](CO)NC(=O)[C@H](Cc1c[nH]c2ccccc12)NC(=O)[C@@H](NC(=O)[C@H](CO)NC(=O)[C@H](CCCC)NC(=O)CNC(=O)[C@H](CCC(=O)O)NC(=O)C(C)(C)NC(=O)C(C)(C)NC(=O)[C@@H](NC(=O)[C@H](CCCCNC(C)=O)NC(=O)[C@H](C)NC(=O)[C@H](CCCNC(=N)N)NC(=O)[C@@H](NC(=O)[C@H](CCCCN)NC(=O)[C@H](CCC(=O)O)NC(=O)[C@H](CCCNC(=N)N)NC(=O)CNC(=O)[C@H](CCC(=O)O)NC(=O)[C@H](CC(C)C)NC(C)=O)C(C)C)[C@@H](C)CC)[C@@H](C)O)C(N)=O)C(=O)O)C(=O)O)C(=O)O` [compound 148] (Ac-LEGREKVRAK(Ac)I[Aib][Aib]EG[Nle]STWS[Aib][Arg(Me2s)]KK(Ac)K([AEEA-AEEA-AEEA-γGlu-γGlu-γGlu-Stearoyl])-NH2): the Emax worked out at 94%.
On to `CCCCCCCCCCCCCCCC(=O)N[C@@H](CCC(=O)N[C@@H](CCC(=O)N[C@@H](CCC(=O)NCCOCCOCC(=O)NCCOCCOCC(=O)NCCOCCOCC(=O)NCCOCCOCC(=O)NCCCC[C@H](NC(=O)[C@H](CCCCNC(C)=O)NC(=O)[C@H](CCCCN)NC(=O)[C@H](CCCNC(=N)N)NC(=O)C(C)(C)NC(=O)[C@H](CO)NC(=O)[C@H](Cc1ccccc1)NC(=O)[C@@H](NC(=O)[C@H](CO)NC(=O)[C@H](CCCC)NC(=O)CNC(=O)[C@H](CCC(=O)O)NC(=O)C(C)(C)NC(=O)C(C)(C)NC(=O)[C@@H](NC(=O)[C@H](CCCCNC(C)=O)NC(=O)[C@H](C)NC(=O)[C@H](CCCNC(=N)N)NC(=O)[C@@H](NC(=O)[C@H](CCCCN)NC(=O)[C@H](CCC(=O)O)NC(=O)[C@H](CCCNC(=N)N)NC(=O)CNC(=O)[C@H](CCC(=O)O)NC(=O)[C@H](CC(C)C)NC(C)=O)C(C)C)[C@@H](C)CC)[C@@H](C)O)C(N)=O)C(=O)O)C(=O)O)C(=O)O` [compound 153] (Ac-LEGREKVRAK(Ac)I[Aib][Aib]EG[Nle]STFS[Aib]RKK(Ac)K([AEEA-AEEA-AEEA-AEEA-γGlu-γGlu-γGlu-Palmitoyl])-NH2), for which the EC50 was 0.26 nM and the Emax came out at 89%.
Take `CCCCCCCCCCCCCCCCCC(=O)N[C@@H](CCC(=O)NCCOCCOCC(=O)N[C@@H](CCC(=O)N[C@@H](CCC(=O)NCCOCCOCC(=O)NCCOCCOCC(=O)NCCCC[C@H](NC(=O)[C@H](CCCCN)NC(=O)[C@H](CCCCN)NC(=O)[C@H](CCCNC(=N)N)NC(=O)C(C)(C)NC(=O)[C@H](CO)NC(=O)[C@H](Cc1c[nH]c2ccccc12)NC(=O)[C@@H](NC(=O)[C@H](CO)NC(=O)[C@H](CCCC)NC(=O)CNC(=O)[C@H](CCC(=O)O)NC(=O)C(C)(C)NC(=O)C(C)(C)NC(=O)[C@@H](NC(=O)[C@H](CCC(N)=O)NC(=O)[C@H](C)NC(=O)[C@H](CCCNC(=N)N)NC(=O)[C@@H](NC(=O)[C@H](CCCCN)NC(=O)[C@H](CCC(=O)O)NC(=O)[C@H](CCCNC(=N)N)NC(=O)CNC(=O)[C@H](CCC(=O)O)NC(=O)[C@H](CC(C)C)NC(C)=O)C(C)C)[C@@H](C)CC)[C@@H](C)O)C(N)=O)C(=O)O)C(=O)O)C(=O)O` [compound 99] (Ac-LEGREKVRAQI[Aib][Aib]EG[Nle]STWS[Aib]RKKK([AEEA-AEEA-γGlu-γGlu-AEEA-γGlu-Stearoyl])-NH2): the EC50 is 0.01 nM and the Emax came out at 87%.
Turning to `CCCCCCCCCCCCCCCC(=O)N[C@@H](CCC(=O)NCCOCCOCC(=O)NCCCC[C@H](NC(=O)[C@H](CCCCN)NC(=O)[C@H](CCCNC(=N)N)NC(=O)C(C)(C)NC(=O)[C@H](CO)NC(=O)[C@H](Cc1c[nH]c2ccccc12)NC(=O)[C@@H](NC(=O)[C@H](CO)NC(=O)[C@H](CCCC)NC(=O)CNC(=O)[C@H](CCC(=O)O)NC(=O)C(C)(C)NC(=O)C(C)(C)NC(=O)[C@@H](NC(=O)[C@H](CCC(N)=O)NC(=O)[C@H](C)NC(=O)[C@H](CCCNC(=N)N)NC(=O)[C@@H](NC(=O)[C@H](CCCCN)NC(=O)[C@H](CCC(=O)O)NC(=O)[C@H](CCCNC(=N)N)NC(=O)CNC(=O)[C@H](CCC(=O)O)NC(=O)[C@H](CC(C)C)NC(C)=O)C(C)C)[C@@H](C)CC)[C@@H](C)O)C(N)=O)C(=O)O` [compound 53] (Ac-LEGREKVRAQI[Aib][Aib]EG[Nle]STWS[Aib]RKK([AEEA-γGlu-Palmitoyl])-NH2), the Emax was 97%.
In the case of `CCCCCCCCCCCCCCCCCC(=O)N[C@@H](CCC(=O)N[C@@H](CCC(=O)N[C@@H](CCC(=O)NCCOCCOCC(=O)NCCOCCOCC(=O)NCCOCCOCC(=O)NCCOCCOCC(=O)NCCCC[C@H](NC(=O)[C@H](CCCCN)NC(=O)[C@H](CCCCN)NC(=O)[C@H](CCCNC(=N)N)NC(=O)C(C)(C)NC(=O)[C@H](CO)NC(=O)[C@H](Cc1c[nH]c2ccccc12)NC(=O)[C@@H](NC(=O)[C@H](CO)NC(=O)[C@H](CCCC)NC(=O)CNC(=O)[C@H](CCC(=O)O)NC(=O)C(C)(C)NC(=O)C(C)(C)NC(=O)[C@@H](NC(=O)[C@H](CCC(N)=O)NC(=O)[C@H](C)NC(=O)[C@H](CCCNC(=N)N)NC(=O)[C@@H](NC(=O)[C@H](CCCCN)NC(=O)[C@H](CCC(=O)O)NC(=O)[C@H](CCCNC(=N)N)NC(=O)CNC(=O)[C@H](CCC(=O)O)NC(=O)[C@H](CC(C)C)NC(C)=O)C(C)C)[C@@H](C)CC)[C@@H](C)O)C(N)=O)C(=O)O)C(=O)O)C(=O)O` [compound 92] (Ac-LEGREKVRAQI[Aib][Aib]EG[Nle]STWS[Aib]RKKK([AEEA-AEEA-AEEA-AEEA-γGlu-γGlu-γGlu-Stearoyl])-NH2), the EC50 amounted to 0.26 nM and the maximal effect (Emax) was found to be 82%.
On to `CCCCCCCCCCCC(=O)N[C@@H](CCC(=O)N[C@@H](CCC(=O)N[C@@H](CCC(=O)NCCOCCOCC(=O)NCCOCCOCC(=O)NCCOCCOCC(=O)NCCCC[C@H](NC(=O)[C@H](CCCCNC(C)=O)NC(=O)[C@H](CCCCN)NC(=O)[C@H](CCCNC(=N)N)NC(=O)C(C)(C)NC(=O)[C@H](CO)NC(=O)[C@H](Cc1c[nH]c2ccccc12)NC(=O)[C@@H](NC(=O)[C@H](CO)NC(=O)[C@H](CCCC)NC(=O)CNC(=O)[C@H](CCC(=O)O)NC(=O)C(C)(C)NC(=O)C(C)(C)NC(=O)[C@@H](NC(=O)[C@H](CCCCNC(C)=O)NC(=O)[C@H](C)NC(=O)[C@H](CCCNC(=N)N)NC(=O)[C@@H](NC(=O)[C@H](CCCCN)NC(=O)[C@H](CCC(=O)O)NC(=O)[C@H](CCCNC(=N)N)NC(=O)CNC(=O)[C@H](CCC(=O)O)NC(=O)[C@H](CC(C)C)NC(C)=O)C(C)C)[C@@H](C)CC)[C@@H](C)O)C(N)=O)C(=O)O)C(=O)O)C(=O)O` [compound 120] (Ac-LEGREKVRAK(Ac)I[Aib][Aib]EG[Nle]STWS[Aib]RKK(Ac)K([AEEA-AEEA-AEEA-γGlu-γGlu-γGlu-Lauroyl])-NH2), for which the Emax was 92%.
